# According to US20030229037A1, “Novel cationic amphiphiles” (priority 2000, published 2003):
# Assays:
# [1] = amino groups, aqueous solution; literature values; cited from earlier work
# [2] = system: COS-7 cells; assay: Transfection of COS-7 cells with lipid/DNA lipoplexes (luciferase reporter plasmid pCMXluc), efficiency relative to DOTAP; format: cell-based, green meerkat; settings: for relative transfection efficiency (maximum): COS-7, pCMXluc, cationic lipid/DOPE 1:1, most effective lipid/DNA ratio of 1:1 to 15:1, 48 h, RLU/µg protein based on DOTAP = 100%
# Procedure: A transfection experiment with cationic lipids can be broken down into four different individual steps. An important prerequisite for the success of a transfection experiment is the successful preparation of liposomes from the lipids to be tested (Step 1). DNA dissolved in buffer is then added to these liposomes, forming lipid/DNA complexes called lipoplexes (Step 2). The lipoplexes are then added to the cells (Step 3). The lipoplexes mediate the uptake of the DNA in the cell. Finally, the success of a transfection is quantified by determining the quantity of gene product forms and any toxicity that may occur is quantified by measuring the quantity of total protein (Step 4).
# A reporter plasmid pCMXluc containing 8,600 base pairs (provided by R. Schüle) that codes for the enzyme luciferase was used to manufacture the lipoplexes. The composition of the lipoplexes and especially the proportion of lipid/DNA [Weibel et al., 1995; Felgner et al., 1994] are critical factors for obtaining a high level of protein expression. The number of negative charges of the plasmid used (one negatively-charged phosphate group per base) and the number of positive charges caused by adding cationic liposomes were used to calculate the proportion of lipid/DNA. For polycationic lipids, the number of all amino functions contained in the head group was made equal to the number of positive charges per lipid. Eight different lipoplexes with charge ratios from 1:1 to 15:1 were manufactured for each cationic lipid. In this process, each lipoplex received the same quantity of DNA but different quantities of lipid. An overview of the model calculation of various proportions of lipid/DNA is presented below.
# After the plasmid (dissolved in buffer) was added to the liposomes, a pipette was used to carefully mix the formulation. It was then allowed to stand at room temperature for 60 minutes to allow the lipoplexes to form. The ripening conditions used here to prepare lipoplexes are based on findings described earlier [Yang and Huang, 1998] and also represent the result of a systematic optimization of lipoplex ripening conditions that were determined using a simple cationic lipid and a tricationic lipid, and which were used here to prepare all lipoplexes [Regelin, 2000].
# The COS-7 cell line (kidney cells from the green meerkat, fibroblast-like cells) which is often used in transfection studies [You et al., 1999; Yu et al., 1999] was used for the cell experiments. This cell line is known to be easy to transfect and grows adherently. It was therefore expected that transfection data could be matched up with all synthesized cationic lipids, and that structure/effectiveness relationships could therefore be identified. The cell experiments were carried out in 96-well microtiter plates with 5,000 cells per well. Cell density has a considerable influence on the success of a transfection experiment when COS-7 cells are used [Deshmukh and Huang, 1997]: on the one hand, cells that are sowed too densely are harder to transfect than less densely sowed cells due to their reduced tendency to divide. While it is not the intention of the applicant to be bound to any particular theory, nor to affect in any measure the scope of the appended claims, it is presently believed that the explanation lies in that plasmids pass more easily into the nucleus of dividing cells [Mortimer et al., 1999], because the […] becomes full of holes or is dissolved during cell division. On the other hand, transfections of cells that have a very low cell density are often associated with elevated cytotoxicity, because more lipoplexes are now available per cell. A moderate cell density of 40-50% confluence, at which a sufficient level of cell division is observed, was selected for the transfection experiments to be carried out as part of this work. […]
# [3] = system: COS-7 cells; assay: Total protein quantity per well (BCA test) as measure of cytotoxicity of the lipoplexes; format: cell-based, green meerkat; settings: COS-7, lipid/DOPE 1:1 lipoplexes, 48 h
# Procedure: 48 hours after the lipoplexes were added, the medium was removed and the cells were washed, because the medium would interfere with the tests to determine the transfection data. The cells were then lysed in order to make a homogeneous cell protein solution. The lysate of every single well was distributed and the total quantity of protein and the luciferase activity were determined in independent assays.
# The total protein quantity was determined using the BCA test with bovine serum albumin as the standard and indicated in the unit μg/well. The protein quantity measured correlates with the number of adherent, living cells still present after transfection and can therefore be used as a measure of toxicity of the respective lipoplexes [Gao and Huang, 1991]. Comparisons of the protein quantities measured with results from cytotoxicity assays that were performed [Regelin, 2000] verify this relationship. The measured values were used in the calculation of transfection efficiency (see below).
# Remove the supernatant medium completely, wash the cells once with a 0.9% NaCl solution, then add 50 μl lysis buffer (ROCHE, Germany) per well. […] Use a BCA test (PIERCE, Rockford, USA) to determine the quantity of total protein per well. […] Determine the protein concentration using the calibration curve in the spectral photometer (Spectra, TECAN, Germany) by quantifying the absorption at λ=550 nm.
# [4] = Liposome preparation (lipid film hydration, ultrasound) and size distribution by photon correlation spectroscopy; format: physicochemical; settings: equimolar DOPE, HBS buffer pH 7.4, ultrasound bath
# Procedure: Preferably, the cationic amphiphile and helper lipid are present in a molar mixing ratio of from about five to one to about one to five. More preferably, the cationic amphiphile and helper lipid are present in a molar mixing ratio of from about two to one to about one to two. Still more preferably, the molar mixing ratio of cationic amphiphile to helper lipid is about 1:1. To prepare liposomes, the cationic lipid to be tested and a helper lipid were dissolved in an organic solvent (e.g., chloroform/methanol mixtures).
# The lipid films can be hydrated by adding buffer, which also gives rise to multilamellar vesicles (MLV). The MLV are then converted into small unilamellar vesicles (SUV) via ultrasonic treatment. [Moog, 1999; Lasic, 1994 and 1995]. The duration of exposure to ultrasound required until a homogenous population of SUV formed depended on the strength of the ultrasound bath. When a common commercial ultrasound bath was used, the process lasted 15-20 minutes. When a high performance ultrasound bath from Bandelin was used (which is also used to homogenize tissue samples) the same results were obtained after just 2 minutes. All liposomes were characterized by measuring their size distribution using photon correlation spectroscopy. In this process, the sizes of liposomes found were preferably between about 20 and about 200 nm, more preferably between about 50 and about 150 nanometers.
# To make the liposome preparation, dissolve 1.29 μmol of the simple cationic lipid to be tested (bicationic: 0.645 μmol, tricationic: 0.43 μmol) in chloroform/methanol (2:1 v/v) in a test tube with an equimolar quantity of DOPE. Use the simple cationic lipid DOTAP without the addition of DOPE.
# Slowly blow off the organic solvent with a TCS sample preparation system (Vapotherm, BARLEY, Bielefeld, Germany) using nitrogen (30-60 minutes) at room temperature. The dried lipid films can be stored for many months at −20° C. […]
compound,measurement,setting,value
NCCCCNCCCN [Spermidine],pKa,[1],above 8
CN(C)C [trimethylamine],pKa,[1],~10
Lipid A,relative transfection efficiency (maximum),[2],approx. 300%
same,cytotoxicity of the lipoplexes (total protein quantity),[3],do not exhibit elevated cytotoxicities
"CCCCCCCC/C=C\CCCCCCCC(=O)OCC(C[N+](C)(C)C)OC(=O)CCCCCCC/C=C\CCCCCCCC.[Cl-] (stereo not shown) [DOTAP, N-[1-(2,3-dioleoyloxy)propyl]-N,N,N-trimethylammoniumchloride, reference compound]",transfection efficiency of the standard lipid (defined as 100%),"[2]; DOTAP without DOPE, lipid/DNA 2.5:1, COS-7, external standard in each microtiter plate",100%
CCCCCCCCCCCCCCOCC(COC(=O)C[N+](C)(C)C)OCCCCCCCCCCCCCC (stereo not shown) [compound 111],relative transfection efficiency (maximum),[2],83%
same,liposome formation in mixture with DOPE,[4],used successfully in a mixture with DOPE to prepare liposomes
"CC(C)CCC[C@@H](C)[C@H]1CC[C@H]2[C@@H]3CC=C4C[C@@H](OC(=O)CN(C)C)CC[C@]4(C)[C@H]3CC[C@]12C [lipid 4, N-Cholesteryloxycarbonylmethyl-N,N-dimethylamine]",relative transfection efficiency (maximum),[2],did not result in a single transfection
same,cytotoxicity of the lipoplexes (total protein quantity),[3],No cytotoxicity was observed
same,liposome formation in mixture with DOPE,[4],liposomes could not be prepared
CCCCCCCCCCCCCCOCC(COC(=O)CN(C)C)OCCCCCCCCCCCCCC (stereo not shown) [compound 110],relative transfection efficiency (maximum),[2],only very low transfection efficiencies
same,liposome formation in mixture with DOPE,[4],formed no liposomes
"CCCCCCCCCCCCCCOCC(COC(=O)CNCCCCNCCCN)OCCCCCCCCCCCCCC.O=CO (stereo not shown) [lipid 115, 10-((2,3-di-tetradecyloxy)-propyloxcarbonylmethyl)-1,5,10-triazadekan formic acid salt]",relative transfection efficiency (maximum),[2],135%
